Experimental data taken from patent publication US5654310A, “Triazolopyrimidones their preparation and use” (BASF Aktiengesellschaft, priority 1992, dated 1997).

Key:
AMPA receptor = test: Binding of ^3 H-AMPA (displacement on rat cerebral membranes); details: rat cerebra membranes, pH 7.1, 60 minutes on ice
Description: For this, the membrane material was treated in the presence of the compounds according to the invention with the radio-labeled substances ^3 H-2-amino-3-hydroxy-5-methyl-4-isoxazolepropionic acid (^3 H-AMPA) and ^3 H-5,7-dichlorocyanuric [sic] acid, which bind to specific receptors (AMPA and NMDA (N-methyl-D-aspartate) receptors respectively). Subsequently the radioactivity in the treated membranes was measured by scintillation counting. It was possible from the bound radioactivity to determine the amounts of bound 3H AMPa and ^3 H-5,7-dichlorokyanurenicacid, or the amounts of each of these radiolabeled substances displaced.
1. Binding of ^3 H-2-amino-3-hydroxy-5-methyl-4-isoxazolepropionic acid (^3 H-AMPA).
To prepare the membrane material, freshly removed rat cerebra were homogenized together with about 15 times the volume of a buffer solution A composed of 30 mM α,α,α-tris(hydroxymethyl)methylamine hydrochloride (TRIS-HCl) and 0.5 mM ethylenediaminetetraacetic acid (EDTA), pH 7.4, using an Ultra-TURRAX. The suspension was centrifuged at 48,000 g for 20 min. After removal of the supernatant liquid, the protein-containing membrane material present in the pellet was washed three times by suspension in buffer solution A and subsequent centrifugation at 48,000 g for 20 minutes each time. The membrane material was then suspended in 15 times the volume of buffer solution A and incubated at 37° C. for 30 minutes. Subsequently the protein material was washed twice by centrifugation and suspension and was stored at -70° C. until used.
For the binding test, the protein material was thawed at 37° C. and washed twice by centrifugation at 48,000 g (20 min) and subsequent suspension in a buffer solution B composed of 50 mM TRIS-HCl, 0.1M potassium thiocyanate and 2.5 mM calcium chloride, pH 7.1. […] The filtrate [sic] was subsequently washed with 5 ml of cold buffer solution B in order to separate bound and free ^3 H-AMPA from one another. After measurement of the radioactivity of the bound ^3 H-AMPA in the membrane material by scintillation counting, the KI was determined by regression analysis of the displacement plots.

[1] = biological target: T1, NMDA (N-methyl-D-aspartate) receptor (Rattus norvegicus, UniProt P35439); test: Binding of ^3 H-5,7-dichlorokynurenic acid (displacement on rat cerebral membranes); details: rat cerebra membranes, pH 7.4, 30 minutes on ice
T1 construct: freshly removed rat cerebra were homogenized; from tissue; host or cells: rat cerebrum, washed membranes

Ki (AMPA receptor) [nM] | Ki [1] [nM] | Structure (SMILES)
1700 | 2600 | CCOC(=O)c1nc2c3c([nH]c(=O)n2n1)CC1CCCCC1C3 (stereo not shown) [Example 21]
1700 | 300 | O=C(O)c1nc2c3c([nH]c(=O)n2n1)-c1ccccc1CC3 [Example 10]
 | 200 | O=C(O)c1nc2c3c(nc(=O)n2[nH]1)CCCC3 [Example 2, 7,8,9,10-Tetrahydro-1,2,4-triazolo[1,5-c]quinazolin-5-one-2-carboxylic acid]
 | 1600 | O=C(O)c1nc2c3c([nH]c(=O)n2n1)CCC3 [Example 6]
 | 1600 | O=C(NCc1ccc(Cl)c(Cl)c1)c1nc2c3c([nH]c(=O)n2n1)CCCC3 [Example 12]
 | 2000 | O=C(NCc1ccc([N+](=O)[O-])cc1)c1nc2c3c([nH]c(=O)n2n1)CCCC3 [Example 15]
 | 650 | CCOC(=O)c1nc2c3c([nH]c(=O)n2n1)-c1ccccc1CC3 [Example 9]
 | 800 | O=C(O)c1nc2c3c([nH]c(=O)n2n1)CCSC3 [Example 18]
 | 400 | CCOC(=O)c1nc2c3c([nH]c(=O)n2n1)CCCCC3 [Example 7]
 | 200 | O=C(O)c1nc2c3c([nH]c(=O)n2n1)CCCCC3 [Example 8]
1500 | 1200 | O=C(NCc1ccccc1)c1nc2c3c([nH]c(=O)n2n1)CCCC3 [Example 3, 7,8,9,10-Tetrahydro-1,2,4-triazolo[1,5-c]quinazolin-5-one-2-carboxylic acid N-benzylolylamide]

Structure (SMILES) | Ki (AMPA receptor) [nM] | Ki [1] [nM]
O=C(O)CCc1nc2c3c([nH]c(=O)n2n1)-c1ccccc1CC3 [Example 11] | 1000 | 100
